The source made the active and inactive calls. No cut-off for these calls is given here.
system: not listed separately; assay: Toxicity in orthotopic mouse assessed as effect on kidney at 60 mg/kg, iv administered twice daily for 18 days by H and E staining based analysis; format: organism-based; conditions: in vivo, 432 h, time 18 day

Row | SMILES | Activity
1 | CC(C)OC(=O)[C@H](C)N[P@](=O)(OC[C@H]1O[C@@H](n2cc(F)c(=O)[nH]c2=O)C[C@@H]1O)Oc1ccccc1 | Non-Toxic

system: not listed separately; assay: Toxicity in orthotopic mouse assessed as change in liver weight at 60 mg/kg, iv administered twice daily for 18 days; format: organism-based; conditions: in vivo, 432 h, time 18 day

Row | SMILES | Activity
2 | CC(C)OC(=O)[C@H](C)N[P@](=O)(OC[C@H]1O[C@@H](n2cc(F)c(=O)[nH]c2=O)C[C@@H]1O)Oc1ccccc1 | Toxic

system: Bel-7402; assay: Antiproliferative activity against human Bel-7402 cells assessed as reduction in cell viability measured after 48 to 72 hrs by MTT assay; format: functional, cell-based; conditions: not given

Row | SMILES | IC50 [µM]
3 | CC(C)OC(=O)[C@H](C)N[P@](=O)(OC[C@H]1O[C@@H](n2cc(F)c(=O)[nH]c2=O)C[C@@H]1O)Oc1ccccc1 | 18.2
4 | CC(C)C[C@H](NC(=O)OC(C)(C)C)C(=O)O[C@H]1C[C@H](n2cc(F)c(=O)[nH]c2=O)O[C@@H]1CO[P@@](=O)(N[C@@H](C)C(=O)OC(C)C)Oc1ccccc1 | 9.68

Other lines, results leading:

Row | IC50 [µM] | SMILES
5 | 0.73 | Cc1ccccc1CO[P@](=O)(N[C@@H](C)C(=O)OC(C)C)OC[C@H]1O[C@@H](n2cc(F)c(=O)[nH]c2=O)C[C@@H]1O
6 | 8.99 | CCC(C)[C@H](NC(=O)OC(C)(C)C)C(=O)O[C@H]1C[C@H](n2cc(F)c(=O)[nH]c2=O)O[C@@H]1CO[P@@](=O)(N[C@@H](C)C(=O)OC(C)C)Oc1ccccc1 (stereo partly drawn)
7 | 10.1 | CC(C)OC(=O)[C@H](C)N[P@](=O)(OC[C@H]1O[C@@H](n2cc(F)c(=O)[nH]c2=O)C[C@@H]1OC(=O)CNC(=O)OC(C)(C)C)Oc1ccccc1

system: Bel-7402; assay: Antiproliferative activity against human Bel-7402 cells assessed as reduction in cell viability at 20 uM measured after 48 hrs by MTT assay relative to control; format: functional; conditions: not given

Row | SMILES | Activity [%]
8 | CC(C)C[C@H](NC(=O)OC(C)(C)C)C(=O)O[C@H]1C[C@H](n2cc(F)c(=O)[nH]c2=O)O[C@@H]1CO[P@@](=O)(N[C@@H](C)C(=O)OC(C)C)Oc1ccccc1 | >60
9 | CCC(C)[C@H](NC(=O)OC(C)(C)C)C(=O)O[C@H]1C[C@H](n2cc(F)c(=O)[nH]c2=O)O[C@@H]1CO[P@@](=O)(N[C@@H](C)C(=O)OC(C)C)Oc1ccccc1 (stereo partly drawn) | >60
10 | CC(C)OC(=O)[C@H](C)N[P@](=O)(OC[C@H]1O[C@@H](n2cc(F)c(=O)[nH]c2=O)C[C@@H]1OC(=O)CNC(=O)OC(C)(C)C)Oc1ccccc1 | >60

system: HepG2; assay: Antitumor activity against human HepG2 cells xenografted in mouse model assessed as tumor growth inhibition at 150 mg/kg/day for 7 days relative to control; format: functional; conditions: HepG2, 168 h, time 7 day, read-out: TGI

Row | SMILES | inhibition in vivo at 150 mg/kg/day [%]
11 | CC(C)OC(=O)[C@H](C)N[P@](=O)(OC[C@H]1O[C@@H](n2cc(F)c(=O)[nH]c2=O)C[C@@H]1O)Oc1ccccc1 | 68

system: not listed separately; assay: Toxicity in orthotopic mouse assessed as effect on lung at 60 mg/kg, iv administered twice daily for 18 days by H and E staining based analysis; format: organism-based; conditions: in vivo, 432 h, time 18 day

Row | SMILES | Activity
12 | CC(C)OC(=O)[C@H](C)N[P@](=O)(OC[C@H]1O[C@@H](n2cc(F)c(=O)[nH]c2=O)C[C@@H]1O)Oc1ccccc1 | Non-Toxic

system: HepG2; assay: Antiproliferative activity against human HepG2 cells assessed as reduction in cell viability measured after 48 to 72 hrs by MTT assay; format: functional, cell-based; conditions: not given

Row | SMILES | IC50 [µM]
13 | CC(C)OC(=O)[C@H](C)N[P@](=O)(OC[C@H]1O[C@@H](n2cc(F)c(=O)[nH]c2=O)C[C@@H]1O)Oc1ccccc1 | 36.2
14 | CC(C)C[C@H](NC(=O)OC(C)(C)C)C(=O)O[C@H]1C[C@H](n2cc(F)c(=O)[nH]c2=O)O[C@@H]1CO[P@@](=O)(N[C@@H](C)C(=O)OC(C)C)Oc1ccccc1 | 21.2

Continued, values first:

Row | IC50 [µM] | SMILES
15 | 0.59 | Cc1ccccc1CO[P@](=O)(N[C@@H](C)C(=O)OC(C)C)OC[C@H]1O[C@@H](n2cc(F)c(=O)[nH]c2=O)C[C@@H]1O
16 | 48.7 | CCC(C)[C@H](NC(=O)OC(C)(C)C)C(=O)O[C@H]1C[C@H](n2cc(F)c(=O)[nH]c2=O)O[C@@H]1CO[P@@](=O)(N[C@@H](C)C(=O)OC(C)C)Oc1ccccc1 (stereo partly drawn)
17 | 17.5 | CC(C)OC(=O)[C@H](C)N[P@](=O)(OC[C@H]1O[C@@H](n2cc(F)c(=O)[nH]c2=O)C[C@@H]1OC(=O)CNC(=O)OC(C)(C)C)Oc1ccccc1

system: HepG2; assay: Antitumor activity against human HepG2 cells xenografted in orthotopic mouse model assessed as average number of tumor at 60 mg/kg, iv administered twice daily for 18 days in presence of 5-Fluorouracil (reference value: 49+/3.6 mM); format: functional; conditions: time 18 day

Row | SMILES | tumour count
18 | CC(C)OC(=O)[C@H](C)N[P@](=O)(OC[C@H]1O[C@@H](n2cc(F)c(=O)[nH]c2=O)C[C@@H]1O)Oc1ccccc1 | 21

system: HepG2; assay: Antitumor activity against human HepG2 cells xenografted in mouse model assessed as tumor growth inhibition at 100 mg/kg/day for 7 days relative to control; format: functional; conditions: HepG2, 168 h, time 7 day, read-out: TGI

Row | SMILES | inhibition in vivo at 100 mg/kg/day [%]
19 | CC(C)OC(=O)[C@H](C)N[P@](=O)(OC[C@H]1O[C@@H](n2cc(F)c(=O)[nH]c2=O)C[C@@H]1O)Oc1ccccc1 | 52

system: not listed separately; assay: Antiproliferative activity against human L02 cells assessed as reduction in cell viability measured after 48 to 72 hrs by MTT assay; format: toxicity, cell-based; conditions: not given

Row | SMILES | IC50 [µM]
20 | CC(C)OC(=O)[C@H](C)N[P@](=O)(OC[C@H]1O[C@@H](n2cc(F)c(=O)[nH]c2=O)C[C@@H]1O)Oc1ccccc1 | > 100
21 | CC(C)C[C@H](NC(=O)OC(C)(C)C)C(=O)O[C@H]1C[C@H](n2cc(F)c(=O)[nH]c2=O)O[C@@H]1CO[P@@](=O)(N[C@@H](C)C(=O)OC(C)C)Oc1ccccc1 | > 100
22 | Cc1ccccc1CO[P@](=O)(N[C@@H](C)C(=O)OC(C)C)OC[C@H]1O[C@@H](n2cc(F)c(=O)[nH]c2=O)C[C@@H]1O | > 100
23 | CCC(C)[C@H](NC(=O)OC(C)(C)C)C(=O)O[C@H]1C[C@H](n2cc(F)c(=O)[nH]c2=O)O[C@@H]1CO[P@@](=O)(N[C@@H](C)C(=O)OC(C)C)Oc1ccccc1 (stereo partly drawn) | > 100
24 | CC(C)OC(=O)[C@H](C)N[P@](=O)(OC[C@H]1O[C@@H](n2cc(F)c(=O)[nH]c2=O)C[C@@H]1OC(=O)CNC(=O)OC(C)(C)C)Oc1ccccc1 | > 100

system: HepG2; assay: Antitumor activity against human HepG2 cells xenografted in orthotopic mouse model assessed as tumor growth inhibition at 60 mg/kg, iv administered twice daily for 18 days in presence of 5-Fluorouracil relative to control; format: functional; conditions: HepG2, 432 h, time 18 day, read-out: TGI

Row | SMILES | inhibition in vivo at 60 mg/kg [%]
25 | CC(C)OC(=O)[C@H](C)N[P@](=O)(OC[C@H]1O[C@@H](n2cc(F)c(=O)[nH]c2=O)C[C@@H]1O)Oc1ccccc1 | 57.1

system: not listed separately; assay: Toxicity in orthotopic mouse assessed as effect on spleen at 60 mg/kg, iv administered twice daily for 18 days by H and E staining based analysis; format: organism-based; conditions: in vivo, 432 h, time 18 day

Row | SMILES | Activity
26 | CC(C)OC(=O)[C@H](C)N[P@](=O)(OC[C@H]1O[C@@H](n2cc(F)c(=O)[nH]c2=O)C[C@@H]1O)Oc1ccccc1 | Non-Toxic

system: HepG2; assay: Antiproliferative activity against human HepG2 cells assessed as reduction in cell viability at 20 uM measured after 48 to 72 hrs in presence of 5-Fluorouracil by MTT assay; format: functional, cell-based; conditions: time 48-72 hrs

Row | SMILES | Activity
27 | CC(C)OC(=O)[C@H](C)N[P@](=O)(OC[C@H]1O[C@@H](n2cc(F)c(=O)[nH]c2=O)C[C@@H]1O)Oc1ccccc1 | Active

system: not listed separately; assay: Antiproliferative activity against human NCM460 cells assessed as reduction in cell viability measured after 48 to 72 hrs by MTT assay; format: toxicity, cell-based; conditions: not given

Row | SMILES | IC50 [µM]
28 | CC(C)OC(=O)[C@H](C)N[P@](=O)(OC[C@H]1O[C@@H](n2cc(F)c(=O)[nH]c2=O)C[C@@H]1O)Oc1ccccc1 | > 100
29 | CC(C)C[C@H](NC(=O)OC(C)(C)C)C(=O)O[C@H]1C[C@H](n2cc(F)c(=O)[nH]c2=O)O[C@@H]1CO[P@@](=O)(N[C@@H](C)C(=O)OC(C)C)Oc1ccccc1 | > 100
30 | Cc1ccccc1CO[P@](=O)(N[C@@H](C)C(=O)OC(C)C)OC[C@H]1O[C@@H](n2cc(F)c(=O)[nH]c2=O)C[C@@H]1O | > 100
31 | CCC(C)[C@H](NC(=O)OC(C)(C)C)C(=O)O[C@H]1C[C@H](n2cc(F)c(=O)[nH]c2=O)O[C@@H]1CO[P@@](=O)(N[C@@H](C)C(=O)OC(C)C)Oc1ccccc1 (stereo partly drawn) | > 100
32 | CC(C)OC(=O)[C@H](C)N[P@](=O)(OC[C@H]1O[C@@H](n2cc(F)c(=O)[nH]c2=O)C[C@@H]1OC(=O)CNC(=O)OC(C)(C)C)Oc1ccccc1 | > 100

system: not listed separately; assay: Toxicity in orthotopic mouse assessed as effect on drug tolerance at 60 mg/kg, iv administered twice daily for 18 days; format: organism-based; conditions: in vivo, 432 h, time 18 day

Row | SMILES | Activity
33 | CC(C)OC(=O)[C@H](C)N[P@](=O)(OC[C@H]1O[C@@H](n2cc(F)c(=O)[nH]c2=O)C[C@@H]1O)Oc1ccccc1 | Non-Toxic

system: not listed separately; assay: Toxicity in orthotopic mouse assessed as effect on heart at 60 mg/kg, iv administered twice daily for 18 days by H and E staining based analysis; format: organism-based; conditions: in vivo, 432 h, time 18 day

Row | SMILES | Activity
34 | CC(C)OC(=O)[C@H](C)N[P@](=O)(OC[C@H]1O[C@@H](n2cc(F)c(=O)[nH]c2=O)C[C@@H]1O)Oc1ccccc1 | Non-Toxic

system: HepG2; assay: Antiproliferative activity against human HepG2 cells assessed as reduction in cell viability at 20 uM measured after 48 hrs by MTT assay relative to control; format: functional; conditions: not given

Row | SMILES | Activity [%]
35 | CC(C)OC(=O)[C@H](C)N[P@](=O)(OC[C@H]1O[C@@H](n2cc(F)c(=O)[nH]c2=O)C[C@@H]1OC(=O)CNC(=O)OC(C)(C)C)Oc1ccccc1 | >50

system: not listed separately; assay: Toxicity in orthotopic mouse assessed as effect on body weight at 60 mg/kg, iv administered twice daily for 18 days; format: organism-based; conditions: in vivo, 432 h, time 18 day

Row | SMILES | Activity
36 | CC(C)OC(=O)[C@H](C)N[P@](=O)(OC[C@H]1O[C@@H](n2cc(F)c(=O)[nH]c2=O)C[C@@H]1O)Oc1ccccc1 | Non-Toxic

system: Bel-7402; assay: Antiproliferative activity against human Bel-7402 cells assessed as reduction in cell viability at 20 uM measured after 48 to 72 hrs in presence of 5-Fluorouracil by MTT assay; format: functional, cell-based; conditions: time 48-72 hrs

Row | SMILES | Activity
37 | CC(C)OC(=O)[C@H](C)N[P@](=O)(OC[C@H]1O[C@@H](n2cc(F)c(=O)[nH]c2=O)C[C@@H]1O)Oc1ccccc1 | Active

system: not listed separately; assay: Toxicity in orthotopic mouse assessed as effect on liver at 60 mg/kg, iv administered twice daily for 18 days by H and E staining based analysis; format: organism-based; conditions: in vivo, 432 h, time 18 day

Row | SMILES | Activity
38 | CC(C)OC(=O)[C@H](C)N[P@](=O)(OC[C@H]1O[C@@H](n2cc(F)c(=O)[nH]c2=O)C[C@@H]1O)Oc1ccccc1 | Non-Toxic

From ChEMBL document CHEMBL5625245, “Novel ProTide prodrugs of 5-fluoro-2'-deoxyuridine for the treatment of liver cancer” (Eur J Med Chem, 2023)
